In patent US12129238B2, “Crystalline form of propoxazepam, the method of its making and use as medicinal agent” (priority 2018, dated 2024):

Legend:
Assay type in all cases: in vivo
mice [1] = assay: Model of acetic acid-induced pain (cramps) on mice; conditions: 0.75% acetic acid i.p. 2 hours after test compound, cramps counted 1st to 20th minute
Experimental: To reproduce acute visceral and somatic deep pain (nociceptive pain), the method of “acetic acid-induced pain (cramps)” was used in mice. The mice received a 0.75% solution of acetic acid intraperitoneally (at a dose of 0.1 ml/10 g of body weight), 2 hours after the administration of the test compounds. The number of cramps was counted from the first to the 20th minute (inclusive) after modeling the pathological state. The calculation of ED50 (the average effective dose of analgesic activity in this model for mice) was carried out using the least squares method.
Two samples of compound (I) were prepared and used in the ‘tail-flick’ test: • The first sample is a dispersed sample of Form I. This was prepared by adding a hot (65° C.) saturated solution of Comparative Example 1 (Form I) in ethyl alcohol to water at room temperature (about 20° C.) and atmospheric pressure (about 101.325 KPa). Dispersed Form I has a particle size (D(50)) of around 29 μm. • The second sample is a dispersed sample of Inventive Example 1, i.e. compound (I) in crystalline Form II. This sample is prepared by was dispersing Inventive Example 1 in a saline solution stabilized with Tween-80. The crystalline structure remains unchanged. Dispersed Form II has a particle size (D(50)) of around 24.3 μm.

rats = assay: Model of thermal nociception (tail flick test) on rats; conditions: rat tail-flick, latency 2 hours after administration, dispersed in saline with Tween 80
Experimental: Antinociceptive (analgesic) activity was evaluated on a rat tail “tail-flick” model using a focused light beam on rats. Latency time was determined by tail pulling away from the beam source, expressed in seconds. Animals were randomized with respect to the initial value of the latent period, with index from 4 to 12 seconds. The magnitude of the antinociceptive effect was indicated by the increasing of the length of the latent period (pain sensitivity threshold, PST). The initial indices of the PST and its changes 2 hours after the administration of the test compound were compared. The calculation of ED50 (the average effective dose of analgesic activity in this model for rats) was carried out using the least squares method.
Three samples of compound (I) were prepared and used in the ‘tail-flick’ test: • The first sample is prepared using the sample of Comparative Example 1, i.e. Form I, in its natural coarse crystalline state. In particular, the coarse crystalline sample of Comparative Example 1 is dispersed in a saline solution and stabilized with Tween 80). The crystalline structure (Form I) remains unchanged. • The second sample was prepared by micronizing (mechanically grinding) the coarse crystalline sample of Comparative Example 1, in order to prepare a sample of Form I having a smaller average particle size. In particular, the micronized sample is dispersed in a saline solution and stabilized with Tween 80). The crystalline structure (Form I) remains unchanged. • The third sample is a dispersed sample of Inventive Example 1, i.e. compound (I) in crystalline Form II. In particular, a sample of Inventive Example 1 is dispersed in a saline solution and stabilized with Tween 80). The crystalline structure (Form II) remains unchanged. The third sample has a similar average particle size to the second sample for a side-by-side comparison.

[2] = Determination of the mean lethal dose (LD50), oral administration to mice; conditions: mouse, in vivo, po, stabilized suspension in isotonic sodium chloride solution, 14 days observation
Description: (§1) The preliminary assignment of a substance to a certain toxicity class is based on an indicator that quantitatively characterizes the acute toxicity of the compound—the dose of the substance that causes a lethal effect in 50% of the population (LD50). Determination of this indicator in one of the types of experimental animals allows to extrapolate it for other species and justify the dose limits for the first phase of clinical trials.
(§2) To calculate the average dose, mortality/survival rates of the animals by the end of the observation period were used.

mice [3] = assay: as above; conditions: stabilized suspension in isotonic sodium chloride solution, 14 days observation
Description: as §1, §2

Row | Compound | ED50 (Average effective dose (50%)) (mice [1]; listed as Dispersed Form I) | ED50 (Average effective dose (50%)) (rats; listed as Form I (coarse crystalline)) | ED50 (Average effective dose (50%)) (rats; listed as Form I (micronized)) | LD50 at 14 days [2] | ED50 (Average effective dose (50%)) (mice [1]; listed as Dispersed Form II) | ED50 (Average effective dose (50%)) (rats) | LD50 (mean lethal dose) (mice [3])
1 | CCCOC1N=C(c2ccccc2Cl)c2cc(Br)ccc2NC1=O (stereo not shown) [Form I, 7-Bromo-3-propoxy-5-(2-chlorophenyl)-1,3-dihydrobenzo-[e]-[1,4]-diazepin-2-one] | 1.87 mg/kg | 1.82 mg/kg | 1.06 mg/kg | 1120 ± 190 mg/kg |  |  | 
2 | CCCOC1N=C(c2ccccc2Cl)c2cc(Br)ccc2NC1=O (stereo not shown) [Form II, 7-Bromo-3-propoxy-5-(2-chlorophenyl)-1,3-dihydrobenzo-[e]-[1,4]-diazepin-2-one] |  |  |  |  | 0.89 mg/kg | 0.17 mg/kg | 1475 ± 402 mg/kg
